Like-named read-outs stand apart in the source and are kept apart here. Peptide text beside a SMILES is read from it. * marks the point of attachment. Cbz = O=C(OCc1ccccc1)*

Assay [1] deals with T1, β2c subunit of isolated human 20S proteasome (Homo sapiens, UniProt Q99436).
T1 construct: purchased Enzo Life Sciences
In words: Proteasome inhibition assay (20 S Proteasome Assay Kit, Bz‐VGR‐AMC). Type of assay: biochemical. The note with it: c = 1 µM, n=1; read-out: Inhibition cCP β2. The method, then: (§1) Proteasome inhibition assay. Bortezomib (Selleckchem) and carfilzomib (MedChemExpress) were purchased and used without further purification. The 20 S Proteasome Assay Kit for Drug Discovery was used according to the supplier's protocol using Suc‐LLVY‐AMC (β5), Bz‐VGR‐AMC (β2) or Z‐LLE‐AMC (β1) as substrates (Enzo Life Sciences). Single point measurements of residual activity of proteasome activity were performed at a final concentration of 100 nM (n=3, β5c, β5i) or 1 μM (n=1, β1c, β2c, β5c, β5i, SI chapter 2a, Table S1). […] Inhibitors were prepared in 2‐fold concentration (cfinal=100 nM) and added to proteasomes (mfinal=200 ng/well). After 30 min incubation, substrate was added (cfinal=100 μM), incubated for 60 minutes and fluorescence was read using a Tecan M1000 microplate reader. Dose‐response curves were fitted to the equation Y=100/(1+10^((L°^gIC50−X)*HillSl°^pe)) using GraphPad Prism 7.02. IC50 values were determined from technical duplicates as mean value of three independent experiments.

Assay [2] has as its target T2, β5i subunit of isolated human 20S proteasome (Homo sapiens, UniProt P28062).
T2 construct: purchased Enzo Life Sciences
Put plainly: Proteasome inhibition assay (20 S Proteasome Assay Kit, Suc‐LLVY‐AMC). Type of assay: biochemical. The settings on record: for inhibition at 1 µM: c = 1 µM, n=1, read-out: Inhibition iCP β5; for inhibition at 0.1 µM: c=100 nM, read-out: Rel. Inhibition β5i. As to the method: as §1, with “Bortezomib (Selleckchem) and carfilzomib (MedChemExpress) were purchased and used without further purification.” left out, “Dose‐response curves were fitted to the equation Y=100/(1+10^((L°^gIC50−X)*HillSl°^pe)) using GraphPad Prism 7.02.” left out

The target in assay [3] is T3, β5c subunit of isolated human 20S proteasome (Homo sapiens, UniProt P28074).
T3 construct: purchased Enzo Life Sciences
The description is as above. In kind it is biochemical. The note with it: for inhibition at 1 µM: read-out: Inhibition cCP β5; for inhibition at 0.1 µM: read-out: Rel. Inhibition β5c. As to the method:
as §1, with “Bortezomib (Selleckchem) and carfilzomib (MedChemExpress) were purchased and used without further purification.” left out, “Dose‐response curves were fitted to the equation Y=100/(1+10^((L°^gIC50−X)*HillSl°^pe)) using GraphPad Prism 7.02.” left out

In assay [4] the target is T4, β1c subunit of isolated human 20S proteasome (Homo sapiens, UniProt P28072).
T4 construct: purchased Enzo Life Sciences
Put plainly: Proteasome inhibition assay (20 S Proteasome Assay Kit, Z‐LLE‐AMC). The settings on record: read-out: Inhibition cCP β1. Type of assay: biochemical. As to the method:
as §1, with “Bortezomib (Selleckchem) and carfilzomib (MedChemExpress) were purchased and used without further purification.” left out, “Dose‐response curves were fitted to the equation Y=100/(1+10^((L°^gIC50−X)*HillSl°^pe)) using GraphPad Prism 7.02.” left out

Another assay deals with MV4‐11 cells. Put plainly: Cell viability endpoint assay (Celltiter Blue, 72 h). Type of assay: cell-based. The settings on record: Homo sapiens, MV4-11, mean±SD from two independent experiments. As to the method: Cell lines. MV4‐11 (ACC 102), Jurkat (ACC 282) and THP‐1 (ACC 16) cells were obtained from DSMZ and maintained at 37 °C and 5 % CO2 at densities between 0.2–1×10^6 cells per mL in RMPI‐1640 medium supplemented with 10 % FBS, L‐glutamine (2 mM) and penicillin/streptomycin.
Cell viability endpoint assay. For the determination of cytotoxicity of proteasome inhibitors 50.000 cells per well were plated in 90 μl RPMI‐1640 medium supplemented with 0.1 % FBS and incubated overnight at 37 °C and 5 % CO2. Inhibitors were serially diluted in RPMI‐1640 medium as 10‐fold stocks and added to cells giving the final concentration (1 nM to 10 μM, Figure S2–S4) and incubated for 72 h at 37 °C and 5 % CO2. Cell viability was determined using the Celltiter Blue assay (Promega) by adding 20 μl of reagent, incubation for 120 minutes at 37 °C and 5 % CO2 and fluorescent read‐out using a Tecan M1000 microplate reader. Dose‐response curves were fitted to the equation “Y=Bottom+(Top‐Bottom)/(1+10^(X−L°^gIC50))” using GraphPad Prism 7.02. IC50 values are determined from technical triplicates as mean value of two independent experiments. Standard deviations (Table S1) as well as dose response curves (SI chapter 2b) are given in the supplementary information.
For orientation: The colour change of resazurin is a common sign of viable cells or microbes.

By inhibition is commonly meant the relative decrease from the control value, in per cent. What is called IC50 is the point on the concentration scale where inhibition reaches its midpoint. A high value points to weaker potency. On to `CC(C)C[C@H](NC(=O)OCc1ccccc1)C(=O)N[C@@H](CC(C)C)C(=O)N[C@@H](CC(C)C)C(=O)C(=O)Nc1ccc(Oc2ccccc2)cc1` [Compound 10, Benzyl‐((S)‐4‐methyl‐1‐(((S)‐4‐methyl‐1‐(((S)‐5‐methyl‐1,2‐dioxo‐1‐((4‐phenoxyphenyl)‐amino)hexan‐3‐yl)amino)‐1‐oxopentan‐2‐yl)amino)‐1‐oxopentan‐2‐yl)carbamate], for which the inhibition at 1 µM in assay [1] was 2%; in assay [2], 23%; in assay [3] (c = 1 µM, n=1) it was 63%; in assay [4] (c = 1 µM, n=1), -3%. Moreover, the inhibition at 0.1 µM in assay [2] came to 5%; in assay [3] (c=100 nM), 25%. Further, it took 45 ± 3 nM to reach half-maximal inhibition in the assay with MV4‐11 cells (IC50).

On to `Cc1c(NC(=O)C(=O)[C@H](CC(C)C)NC(=O)[C@H](CC(C)C)NC(=O)[C@H](CC(C)C)NC(=O)OCc2ccccc2)cccc1Oc1ccccc1` [Compound 14, Benzyl((S)‐4‐methyl‐1‐(((S)‐4‐methyl‐1‐(((S)‐5‐methyl‐1‐((2‐methyl‐3‐phenoxyphenyl)‐amino)‐1,2‐dioxohexan‐3‐yl)amino)‐1‐oxopentan‐2‐yl)amino)‐1‐oxopentan‐2‐yl)carbamate], for which the inhibition at 1 µM is 5% in assay [1]; 30% in assay [2]; 78% in assay [3] (c = 1 µM, n=1); -10% in assay [4] (c = 1 µM, n=1). In addition, the inhibition at 0.1 µM in assay [2] was 29%; in assay [3] (c=100 nM), 41%. The same molecule displayed an IC50 in the assay with MV4‐11 cells of 27 ± 8 nM.

Consider `CC(C)C[C@@H](C=O)NC(=O)[C@H](CC(C)C)NC(=O)[C@H](CC(C)C)NC(=O)c1cc(Cl)ccc1Cl` [Compound 24, 2,5‐Dichloro‐N‐((S)‐4‐methyl‐1‐(((S)‐4‐methyl‐1‐(((S)‐4‐methyl‐1‐oxopentan‐2‐yl)‐amino)‐1‐oxo‐pentan‐2‐yl)amino)‐1‐oxopentan‐2‐yl)benzamide], for which the inhibition at 1 µM in assay [1] worked out at 26%; in assay [2] it was 89%; in assay [3] (c = 1 µM, n=1) it was 94%; in assay [4] (c = 1 µM, n=1), 13%. Further, the inhibition at 0.1 µM in assay [2] was determined as 60%; in assay [3] (c=100 nM), 76%. This molecule yielded a half-maximal inhibitory concentration (IC50) with MV4‐11 cells of 16 ± 1 nM.

In the case of `Cc1ccc(NC(=O)C(=O)[C@H](CC(C)C)NC(=O)[C@H](CC(=O)OC(C)(C)C)NC(=O)[C@H](CC(C)C)NC(=O)OCc2ccccc2)c(C)c1` [Compound 17, tert ‐Butyl‐(S)‐3‐((S)‐2‐(((benzyloxy)carbonyl)amino)‐4‐methylpentanamido)‐4‐(((S)‐1‐((2,4‐dime‐thylphenyl)amino)‐5‐methyl‐1,2‐dioxohexan‐3‐yl)amino)‐4‐oxobutanoate], the inhibition at 1 µM in assay [1] is -10%; in assay [2] it was 69%; in assay [3] (c = 1 µM, n=1) it was 88%; in assay [4] (c = 1 µM, n=1), 11%. The inhibition at 0.1 µM came out at 36% in assay [2] and 43% in assay [3] (c=100 nM). For the same molecule, the IC50 with MV4‐11 cells came to 46 ± 1 nM.

Consider `CC(C)C[C@@H](C=O)NC(=O)[C@H](CC(C)C)NC(=O)[C@H](CC(C)C)NC(=O)c1cnccn1` [Compound 23, N ‐((S)‐4‐Methyl‐1‐(((S)‐4‐methyl‐1‐(((S)‐4‐methyl‐1‐oxopentan‐2‐yl)amino)‐1‐oxopentan‐2‐yl)amino)‐1‐oxopentan‐2‐yl)pyrazine‐2‐carboxamide], for which the inhibition at 1 µM in assay [1] was found to be 49%; in assay [2], 64%; in assay [3] (c = 1 µM, n=1), 75%; in assay [4] (c = 1 µM, n=1), 19%. For the same molecule, the inhibition at 0.1 µM was found to be 4% in assay [2] and 30% in assay [3] (c=100 nM). The IC50 in the assay with MV4‐11 cells was determined as 145 ± 23 nM.

Consider `CC(C)C[C@H](NC(=O)OCc1ccccc1)C(=O)N[C@@H](CC(=O)OC(C)(C)C)C(=O)N[C@@H](CC(C)C)C(=O)C(=O)Nc1cccc(Oc2ccccc2)c1` [Compound 19, tert ‐Butyl‐(S)‐3‐((S)‐2‐(((benzyloxy)carbonyl)amino)‐4‐methylpentanamido)‐4‐(((S)‐5‐methyl‐1,2‐dioxo‐1‐((3‐phenoxyphenyl)amino)hexan‐3‐yl)amino)‐4‐oxobutanoate], for which the inhibition at 1 µM in assay [1] is 9%; in assay [2], 31%; in assay [3] (c = 1 µM, n=1), 84%; in assay [4] (c = 1 µM, n=1), -15%. Besides, the inhibition at 0.1 µM in assay [2] was 43%; in assay [3] (c=100 nM), 53%. In addition, in the assay with MV4‐11 cells, inhibition was half-maximal at 36 ± 5 nM (IC50).

For the molecule `CC(C)C[C@H](NC(=O)OCc1ccccc1)C(=O)N[C@@H](CC(=O)OC(C)(C)C)C(=O)N[C@@H](CC(C)C)C(=O)C(=O)Nc1ccc(Oc2ccccc2)cc1` [Compound 20, tert ‐Butyl‐(S)‐3‐((S)‐2‐(((benzyloxy)carbonyl)amino)‐4‐methylpentanamido)‐4‐(((S)‐5‐methyl‐1,2‐dioxo‐1‐((4‐phenoxyphenyl)amino)hexan‐3‐yl)amino)‐4‐oxobutanoate], the inhibition at 1 µM is -7% in assay [1]; 22% in assay [2]; 38% in assay [3] (c = 1 µM, n=1); -24% in assay [4] (c = 1 µM, n=1). Further, the inhibition at 0.1 µM in assay [2] amounted to 40%; in assay [3] (c=100 nM), 41%. In the assay on MV4‐11 cells, this molecule had an IC50 of 68 ± 9 nM.

`CC(C)C[C@@H](C=O)NC(=O)[C@H](CC(C)C)NC(=O)[C@H](CC(C)C)NC(=O)OCc1ccccc1` [Compound 4, MG132, reference compound] (Cbz-Leu-Leu-Leu-aldehyde): the inhibition at 1 µM in assay [1] was determined as 21%; in assay [3] it was 82%; in assay [4] it was 27%. In assay [3], the inhibition at 0.1 µM came out at 43%. This molecule also had an IC50 with MV4‐11 cells of 131 ± 12 nM.

As for `CC(C)C[C@H](NC(=O)OCc1ccccc1)C(=O)N[C@@H](CC(=O)OC(C)(C)C)C(=O)N[C@@H](CC(C)C)C(=O)C(=O)Nc1ccccc1Oc1ccccc1` [Compound 18, tert ‐Butyl‐(S)‐3‐((S)‐2‐(((benzyloxy)carbonyl)amino)‐4‐methylpentanamido)‐4‐(((S)‐5‐methyl‐1,2‐dioxo‐1‐((2‐phenoxyphenyl)amino)hexan‐3‐yl)amino)‐4‐oxobutanoate], the inhibition at 1 µM is 2% in assay [1]; 7% in assay [2]; 59% in assay [3] (c = 1 µM, n=1); -12% in assay [4] (c = 1 µM, n=1). Further, the inhibition at 0.1 µM is 18% in assay [2] and 28% in assay [3] (c=100 nM). Half-maximal inhibition with MV4‐11 cells (IC50) was put at 76 ± 14 nM.

As to `Cc1ccc(NC(=O)C(=O)[C@H](CC(C)C)NC(=O)[C@H](CC(=O)OC(C)(C)C)NC(=O)[C@H](CC(C)C)NC(=O)c2cc(Cl)ccc2Cl)c(C)c1` [Compound 28, tert ‐Butyl (S)‐3‐((S)‐2‐(2,5‐dichlorobenzamido)‐4‐methylpentanamido)‐4‐(((S)‐1‐((2,4‐dimethyl‐phenyl)amino)‐5‐methyl‐1,2‐dioxohexan‐3‐yl)amino)‐4‐oxobutanoate], the inhibition at 1 µM in assay [1] was 6%; in assay [2], 52%; in assay [3] (c = 1 µM, n=1), 81%; in assay [4] (c = 1 µM, n=1), -10%. Also, the inhibition at 0.1 µM in assay [2] is 35%; in assay [3] (c=100 nM) it was 26%. The molecule further came in with an IC50 in the assay on MV4‐11 cells of 47 ± 5 nM.

Values taken from paper PMC6916368, “Cell‐Based Optimization of Covalent Reversible Ketoamide Inhibitors Bridging the Unprimed to the Primed Site of the Proteasome β5 Subunit” (Chemmedchem, 2019).
